Measured values reported in patent publication US9605283B2, “Microorganism modified for the production of 1,3-propanediol” (INSTITUT NATIONAL DES SCIENCES APPLIQUÉES, priority 2012, dated 2017).
Residue numbers refer to the chain shown, from its start.

Columns and labels:
Type in all cases: biochemical
[1] = biological target: T1, Escherichia coli malate dehydrogenase Ec-Mdh variant R81A G179D, SEQ ID No. 168 (Escherichia coli, UniProt P61889, G179D/R81A); experiment: DHB dehydrogenase kinetics, Ec-Mdh R81A G179D; details: 37° C., pH 8, 10 mM NAD
T1 sequence (P61889 1-312 R81A/G179D): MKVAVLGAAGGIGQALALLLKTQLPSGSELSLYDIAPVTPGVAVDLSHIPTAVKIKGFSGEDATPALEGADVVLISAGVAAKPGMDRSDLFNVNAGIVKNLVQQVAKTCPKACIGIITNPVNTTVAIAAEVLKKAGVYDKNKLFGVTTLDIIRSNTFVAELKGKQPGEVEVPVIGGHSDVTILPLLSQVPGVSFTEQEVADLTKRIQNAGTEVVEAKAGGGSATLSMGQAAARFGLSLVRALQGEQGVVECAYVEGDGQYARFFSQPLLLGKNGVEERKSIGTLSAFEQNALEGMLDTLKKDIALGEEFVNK
Protocol: Site-directed mutagenesis of the E. coli mdh and the B. subtilis mdh genes were carried out using the oligonucleotide pairs listed in Table 3 and the pET28-Ec-mdh and the pET28-Bs-mdh plasmids as the templates. Point mutations to change the amino acid sequence were introduced by PCR (Phusion 1U, HF buffer 20% (v/v), dNTPs 0.2 mM, direct and reverse primers 0.04 μM each, template plasmid 50 ng, water) using the oligonucleotide pairs listed in Table 3. Mutated genes contained a new restriction site listed in Table 3 (introduced using silent mutations) in addition to the functional mutation to facilitate identification of mutated clones. The PCR products were digested by DpnI at 37° C. for 1 h to remove template DNA, and transformed into competent E. coli DH5-alpha cells (NEB). The mutated plasmids were identified by restriction site analysis and verified to carry the desired mutations by DNA sequencing.
Mutant enzymes were expressed, purified and tested for DHB dehydrogenase activity as described in Example 1.
The mutation R81A in Ec-Mdh (by reference to SEQ ID No. 124) was combined with additional changes in the protein sequence.

[2] = biological target: T2, Escherichia coli malate dehydrogenase Ec-Mdh variant R81A I12V, SEQ ID No. 162 (Escherichia coli, UniProt P61889, I12V/R81A); experiment: DHB dehydrogenase / malate dehydrogenase kinetics, Ec-Mdh R81A I12V; details: read-out: Km (DHB); 37° C., pH 8, 10 mM NAD
T2 sequence (P61889 1-312 I12V/R81A): T1 sequence (P61889 1-312 R81A/G179D) with I12V, D179G
Protocol: (§4) Activity of the cytosolic DHB dehydrogenases (Ec-Mdh, Bs-Mdh, Ll-LdhA) was assayed by following the DHB-dependent reduction of NAD^+.
(§5) The reaction mixture contained 60 mM Hepes (pH 8), 50 mM potassium chloride, 5 mM MgCl2, 10 mM NAD, (optionally, 5 mM fructose-1,6-bisphosphate (F16bP)) (all products from Sigma), and appropriate amounts of purified enzyme or cell extract. Reactions were started by adding 50 mM (L)-2,4-dihydroxybutyrate (Rhodia).
All enzymatic assays were carried out at 37° C. in 96-well flat bottomed microtiter plates in a final volume of 250 μL.

[3] = biological target: T3, Zymomonas mobilis pyruvate decarboxylase Zm-Pdc variant W392L, SEQ ID No. 192 (Zymomonas mobilis, UniProt P06672, W392L); experiment: OHB decarboxylase / pyruvate decarboxylase kinetics, Zm-Pdc W392L; details: 37° C., pH 7, coupled to yeast alcohol dehydrogenase/NADH; read-out: Km (natural substrate, pyruvate)
T3 sequence (P06672 1-568 W392L): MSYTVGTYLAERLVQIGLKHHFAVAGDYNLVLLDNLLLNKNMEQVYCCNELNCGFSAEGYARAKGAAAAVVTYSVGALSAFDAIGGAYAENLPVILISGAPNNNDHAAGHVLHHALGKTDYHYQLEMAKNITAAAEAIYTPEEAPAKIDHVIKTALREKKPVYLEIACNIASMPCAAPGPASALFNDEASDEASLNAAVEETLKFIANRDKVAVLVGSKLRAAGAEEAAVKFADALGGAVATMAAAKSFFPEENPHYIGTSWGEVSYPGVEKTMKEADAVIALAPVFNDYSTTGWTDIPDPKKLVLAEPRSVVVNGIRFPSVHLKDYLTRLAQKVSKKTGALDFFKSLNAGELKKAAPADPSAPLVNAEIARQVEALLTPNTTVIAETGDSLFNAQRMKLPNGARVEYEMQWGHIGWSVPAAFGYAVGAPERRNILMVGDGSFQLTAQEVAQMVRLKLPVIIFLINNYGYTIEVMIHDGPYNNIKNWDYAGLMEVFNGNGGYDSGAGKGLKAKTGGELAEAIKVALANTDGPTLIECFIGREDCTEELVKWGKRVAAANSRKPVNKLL
Protocol: (§1) OHB decarboxylase activity was assayed by coupling the decarboxylase activity to the NADPH-dependent reduction of the released 3-hydroxypropanal by purified aldehyde reductase, YqhD, from E. coli. The decarboxylation of pyruvate was coupled to the NADH-dependent reduction of acetaldehyde catalysed by yeast alcohol dehydrogenase. Branched-chain alpha-ketoacid decarboxylase activity was measured on 4-methyl-2-oxovaleric acid by coupling to the NADH-dependent reduction of 3-methylbutanal catalysed by horse liver alcohol dehydrogenase. […] Reactions were started by adding 20 mM 2-oxo-4-hydroxybutyrate (OHB), 10 mM 4-methyl-2-oxovaleric acid (MOV), or 5 mM pyruvate.
(§2) Site-directed mutagenesis of the L. lactis kdcA and the Z. mobilis Pdc genes was carried out using the oligonucleotide pairs listed in Table 9 and the pET28-Ll-kdcA and pET28-Zm-Pdc plasmids, respectively, as the template.
(§3) Mutant enzymes were expressed, purified and tested for OHB decarboxylase, pyruvate decarboxylase and MOV decarboxylase activity as described in Example 4.

[4] = biological target: T4, Zymomonas mobilis pyruvate decarboxylase Zm-Pdc variant G413N, SEQ ID No. 194 (Zymomonas mobilis, UniProt P06672, G413N); experiment: OHB decarboxylase / pyruvate decarboxylase kinetics, Zm-Pdc G413N; details: 37° C., pH 7, coupled to yeast alcohol dehydrogenase/NADH; read-out: Km (natural substrate, pyruvate)
T4 sequence (P06672 1-568 G413N): T3 sequence (P06672 1-568 W392L) with L392W, G413N
Protocol: as §1, §2, §3

[5] = DHB dehydrogenase activity of cytosolic enzymes (DHB-dependent reduction of NAD+)
Protocol: as §4, §5
All enzymatic assays were carried out at 37° C. in 96-well flat bottomed microtiter plates in a final volume of 250 μL. The reactions were followed by the characteristic absorption of NADH at 340 nm (εNADH=6.22 mM^−1 cm^−1) or the absorbtion of DCIP at 655 nm (εDCIP=5.9 mM^−1 cm^−1) in a microplate reader (BioRad 680XR).

[6] = Malate dehydrogenase activity (natural substrate)

O=C(O)[C@@H](O)CCO [DHB, (L)-2,4-dihydroxybutyrate]
Km [1]: > 100 mM | Km [2]: > 100 mM

CC(=O)C(=O)O [pyruvate]
Km [3]: > 50 mM | Km [4]: > 50 mM

Bs-Mdh: (L)-malate dehydrogenase of Bacillus subtilis, wild-type, SEQ ID No. 126
DHB dehydrogenase activity (in words) ([5]; cytosolic wild-type enzymes): no measurable DHB dehydrogenase activity | maximum activity on DHB ([5]; text of Example 2): 0 µmol/mg/min | Max. specific activity, DHB ([5]; when not saturated, activity estimated at 50 mM substrate, Table 2): 0 µmol/mg/min | Max. specific activity, Natural substrate ([6]; natural substrate (L)-malate, Table 2): 10.5 µmol/mg/min | activity on malate ([6]; text of Example 2): 10.9 µmol/mg/min
